US11040028B2, “Penicinotam derivative, preparation method and use thereof” (OCEAN UNIVERSITY OF CHINA, priority 2017, dated 2021)

Assays:
Type in all cases: cell-based
[1] = system: human dermal fibroblasts CCC-ESF-1; experiment: Anti-fibrosis activity test: inhibition of proliferation of human dermal fibroblasts CCC-ESF-1 (CCK-8); settings: Homo sapiens, Fibroblast; CCC-ESF-1 cells, 48 h, CCK-8
In short: (§1)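 After one day of adherence at 37° C in 5% CO2, cells (seeded at 2×10^4 cells/mL) received the compounds for two days in triplicate. Inhibition of proliferation was quantified with CCK-8 at 450 nm, with IC50 calculated from IR = (1−Ai/Ao)×100%.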

[2] = system: mouse macrophages (RAW264.7); experiment: Lipopolysaccharide-induced NO secretion in macrophages (Griess); settings: Mus musculus, RAW264.7, 24 h, RAW264.7, LPS 1 μg/ml, a/b isomers given as first/second symbol, read-out: IC50 (μM), inhibition of lipopolysaccharide-induced NO secretion in macrophages
In short: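 LPS 1 μg/ml, 24 h, RAW264.7 (DMEM/10% FBS); cpds at varied concs. Supernatant NO by Griess, A548; % inhibition vs blank medium.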

[3] = system: NF-κB; experiment: Immunological activity test: inhibition of NF-κB activity; settings: initial concentration of 30 μM; a/b isomers given as first/second symbol; read-out: IC50 (μM), inhibitory activity against NF-κB
In short: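 Each compound is tested at 30 μM for its ability to suppress NF-κB signalling. Parthenolide runs alongside as the positive control, and the data are then analysed to give IC50 values.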

[4] = system: human fibrosarcoma cells HT-1080; experiment: Anti-fibrosis activity test: inhibition of proliferation of human fibrosarcoma cells HT-1080 (CCK-8); settings: Homo sapiens, HT-1080, 48 h, HT-1080 cells, 48 h, CCK-8
In short: as §1

[5] = system: human embryonic lung fibroblast IMR-90; experiment: Anti-fibrosis activity test: inhibition of proliferation of human embryonic lung fibroblast IMR-90 (CCK-8); settings: Homo sapiens; IMR-90 cells, 48 h, CCK-8
In short: as §1

[6] = system: human hepatic stellate cells LX-2; experiment: Anti-fibrosis activity test: inhibition of proliferation of human hepatic stellate cells LX-2 (CCK-8); settings: Homo sapiens, LX-2, 48 h, LX-2 cells, 48 h, CCK-8
In short: as §1

[7] = system: human lung fibroblasts HFL1; experiment: Anti-fibrosis activity test: inhibition of proliferation of human lung fibroblasts HFL1 (CCK-8); settings: Homo sapiens, HFL1, 48 h, HFL1 cells, 48 h, CCK-8
In short: as §1

[8] = system: cardiac fibroblast RAT-iCell-C002; experiment: Anti-fibrosis activity test: inhibition of proliferation of cardiac fibroblast RAT-iCell-C002 (CCK-8); settings: Cardiac fibroblast, 48 h, RAT-iCell-C002 cells, CCK-8
In short: as §1

[9] = system: BHK-21 cells; experiment: Anti-fibrosis activity test: inhibition of BHK-21 cell proliferation (CCK-8); settings: Mesocricetus auratus, BHK-21, 48 h, 48 h, CCK-8
In short: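 Cells seeded at 2×10^4 cells/mL, allowed to adhere 24 hours, then exposed to graded compound concentrations in triplicate for 48 hours at 37° C, 5% CO2. CCK-8 added for 2 hours, absorbance read at 450 nm; inhibition versus blank control used to derive IC50. Pirfenidone served as positive control.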

SMILES	IC50 [1] [mM]	IC50 [2] [µM]	IC50 [3] [µM]	IC50 [4] [mM]	IC50 [5] [mM]	IC50 [6] [mM]	IC50 [7] [mM]	IC50 [8] [mM]	IC50 [9] [mM]
O=C1c2c(nc3ccccc3c2OCCN2CCCCC2)-c2cccn21 [Compound 665b, 9-(2-(piperidin-1-yl)ethoxy)-10H-pyrrolizino[1,2-b]quinolin-10-one]	0.05 to 5	1 to 10	1 to 10	0.05 to 5	0.05 to 5	0.05 to 5	0.05 to 5	0.05 to 5	0.05 to 5
O=C1c2c(n(CCCN3CCCCC3)c3ccccc3c2=O)-c2cccn21 [Compound 666a, 4-(3-(Piperidin-1-yl)propyl)-9H-pyrrolizino[1,2-b]quinoline-9,10(4H)-dione]	0.05 to 5	1 to 10	1 to 10	0.05 to 5	0.05 to 5	0.05 to 5	0.05 to 5	0.05 to 5	0.05 to 5
O=C1c2c(nc3ccccc3c2OCCCN2CCCCC2)-c2cccn21 [Compound 666b, 9-(3-(piperidin-1-yl)propoxy)-10H-pyrrolizino[1,2-b]quinolin-10-one]	0.05 to 5	1 to 10	1 to 10	0.05 to 5	0.05 to 5	0.05 to 5	0.05 to 5	0.05 to 5	0.05 to 5
O=C1c2c(n(CCCCN3CCCCC3)c3ccccc3c2=O)-c2cccn21 [Compound 667a, 4-(4-(Piperidin-1-yl)butyl)-9H-pyrrolizino[1,2-b]quinoline-9,10(4H)-dione]	0.05 to 5	1 to 10	1 to 10	0.05 to 5	0.05 to 5	0.05 to 5	0.05 to 5	0.05 to 5	0.05 to 5
O=C1c2c(nc3ccccc3c2OCCCCN2CCCCC2)-c2cccn21 [Compound 667b, 9-(4-(piperidin-1-yl)butoxy)-10H-pyrrolizino[1,2-b]quinolin-10-one]	0.05 to 5	1 to 10	1 to 10	0.05 to 5	0.05 to 5	0.05 to 5	0.05 to 5	0.05 to 5	0.05 to 5
O=C1c2c(n(Cc3ccccc3[N+](=O)[O-])c3ccccc3c2=O)-c2cccn21 [Compound 668a, 4-(2-Nitrobenzyl)-9H-pyrrolizino[1,2-b]quinoline-9,10(4H)-dione]	0.05 to 5	1 to 10	0.1 to 1	0.05 to 5	0.05 to 5	0.05 to 5	0.05 to 5	0.05 to 5	0.05 to 5
O=C1c2c(nc3ccccc3c2OCc2ccccc2[N+](=O)[O-])-c2cccn21 [Compound 668b, 9-((2-nitrobenzyl)oxy)-10H-pyrrolizino[1,2-b]quinolin-10-one]	0.05 to 5	1 to 10	1 to 10	0.05 to 5	0.05 to 5	0.05 to 5	0.05 to 5	0.05 to 5	0.05 to 5
O=C1c2c(n(CCCN3CCNCC3)c3ccccc3c2=O)-c2cccn21 [Compound 669a, 4-(3-(Piperazin-1-yl)propyl)-9H-pyrrolizino[1,2-b]quinoline-9,10(4H)-dione]	0.05 to 5	1 to 10	0.1 to 1	0.05 to 5	0.05 to 5	0.05 to 5	0.05 to 5	0.05 to 5	0.05 to 5
O=C1c2c(nc3ccccc3c2OCCCN2CCNCC2)-c2cccn21 [Compound 669b, 9-(3-(piperazin-1-yl)propoxy)-10H-pyrrolizino[1,2-b]quinolin-10-one]	0.05 to 5	1 to 10	1 to 10	0.05 to 5	0.05 to 5	0.05 to 5	0.05 to 5	0.05 to 5	0.05 to 5
O=C1c2c(n(CCCCN3CCNCC3)c3ccccc3c2=O)-c2cccn21 [Compound 670a, 4-(4-(Piperazin-1-yl)butyl)-9H-pyrrolizino[1,2-b]quinoline-9,10(4H)-dione]	0.05 to 5	1 to 10	0.1 to 1	0.05 to 5	< 0.05	0.05 to 5	0.05 to 5	0.05 to 5	< 0.05
O=C1c2c(nc3ccccc3c2OCCCCN2CCNCC2)-c2cccn21 [Compound 670b, 9-(4-(piperazin-1-yl)butoxy)-10H-pyrrolizino[1,2-b]quinolin-10-one]	0.05 to 5	1 to 10	1 to 10	0.05 to 5	0.05 to 5	0.05 to 5	0.05 to 5	0.05 to 5	0.05 to 5
CCCOCCn1c2c(c(=O)c3ccccc31)C(=O)n1cccc1-2 [Compound 671a, 4-(2-Propoxyethyl)-9H-pyrrolizino[1,2-b]quinoline-9,10(4H)-dione]	0.05 to 5	1 to 10	1 to 10	0.05 to 5	0.05 to 5	0.05 to 5	0.05 to 5	0.05 to 5	0.05 to 5
CCCOCCOc1c2c(nc3ccccc13)-c1cccn1C2=O [Compound 671b, 9-(2-propoxyethoxy)-10H-pyrrolizino[1,2-b]quinolin-10-one]	0.05 to 5	1 to 10	0.1 to 1	0.05 to 5	0.05 to 5	0.05 to 5	0.05 to 5	0.05 to 5	0.05 to 5
CCOCCCn1c2c(c(=O)c3ccccc31)C(=O)n1cccc1-2 [Compound 672a, 4-(3-Ethoxypropyl)-9H-pyrrolizino[1,2-b]quinoline-9,10(4H)-dione]	0.05 to 5	1 to 10	1 to 10	0.05 to 5	0.05 to 5	0.05 to 5	0.05 to 5	0.05 to 5	0.05 to 5
CCOCCCOc1c2c(nc3ccccc13)-c1cccn1C2=O [Compound 672b, 9-(3-ethoxypropoxy)-10H-pyrrolizino[1,2-b]quinolin-10-one]	0.05 to 5	1 to 10	1 to 10	0.05 to 5	0.05 to 5	0.05 to 5	0.05 to 5	0.05 to 5	0.05 to 5
O=C1c2c(n(C3CC3)c3ccccc3c2=O)-c2cccn21 [Compound 673a, 4-Cyclopropyl-9H-pyrrolizino[1,2-b]quinoline-9,10(4H)-dione]	0.05 to 5	1 to 10	1 to 10	0.05 to 5	0.05 to 5	0.05 to 5	0.05 to 5	0.05 to 5	< 0.05
O=C1c2c(nc3ccccc3c2OC2CC2)-c2cccn21 [Compound 673b, 9-cyclopropoxy-10H-pyrrolizino[1,2-b]quinolin-10-one]	0.05 to 5	1 to 10	1 to 10	0.05 to 5	0.05 to 5	0.05 to 5	0.05 to 5	0.05 to 5	0.05 to 5
Cc1cccc2[nH]c3c(c(=O)c12)C(=O)n1cccc1-3 [Compound 678a, 8-Methyl-9H-pyrrolizino[1,2-b]quinoline-9,10(4H)-dione]	0.05 to 5	1 to 10	1 to 10	0.05 to 5	0.05 to 5	0.05 to 5	0.05 to 5	0.05 to 5	0.05 to 5
Cc1cccc2nc3c(c(O)c12)C(=O)n1cccc1-3 [Compound 678b, 9-hydroxy-8-methyl-10H-pyrrolizino[1,2-b]quinolin-10-one]	0.05 to 5	1 to 10	1 to 10	0.05 to 5	0.05 to 5	0.05 to 5	0.05 to 5	0.05 to 5	0.05 to 5
Cc1ccc2[nH]c3c(c(=O)c2c1)C(=O)n1cccc1-3 [Compound 696a, 7-Methyl-9H-pyrrolizino[1,2-b]quinoline-9,10(4H)-dione]	0.05 to 5	1 to 10	1 to 10	0.05 to 5	0.05 to 5	0.05 to 5	0.05 to 5	0.05 to 5	0.05 to 5
